This is an account of results in patent US20150132229A1, “BIS AZAINOSITOL HEAVY METAL COMPLEXES FOR X-RAY IMAGING” (BAYER PHARMA AKTIENGESELLSCHAFT, priority 2012, published 2015).

Series [1] is described as follows: Pharmacokinetics in rats (Hafnium blood concentration by ICP-MS, 3-compartment model). Particulars: i.v. 150 mg Hf/kg. In kind it is in vivo. On the procedure:
An aqueous solution of [Hf3(H−3tacitp)2](in 10 mM trometamol buffer, pH 7.4, 60 mg Hf/mL) was injected in the tail vein of 3 rats (ca. 250 g) at a dose of 150 mg Hf/kg. Blood samples were collected via a catheter from the arteria carotis at the following times: 1, 2, 5, 10, 15, 30, 60, 90, 120, 240, 360 and 1440 min after injection.
The Hafnium concentration in all blood samples was determined after digestion in oxidizing solution (nitric acid and hydrogen peroxide) at elevated pressure and temperature. The measurement of Hafnium was performed by ICP-MS.
The pharmacokinetic parameters were obtained for each animal by fitting the blood concentrations to a 3-compartment model, using the software WinNonlin.

A short description of series [2]: Excretion in rats (Hafnium in urine, faeces, organs and carcass by ICP-MS). In kind it is in vivo. The conditions noted are these: i.v. 150 mg Hf/kg. On the procedure:
An aqueous solution of [Hf3(H−3tacitp)2](in 10 mM trometamol buffer, pH 7.4, 60 mg Hf/mL) was injected in the tail vein of 3 rats (ca. […]) at a dose of 150 mg Hf/kg. Urine samples were collected at the following time intervals: 0-0.5, 0.5-1, 1-3, 3-6, 6-24 h and then daily until day 7. Faeces was collected daily until day 7. On day 7 the animals were sacrificed and the following organs were excised: liver, kidneys, spleen, heart, lung, brain, lymph nodes, muscle, gut, duodenum, skin, bone marrow, bone. The remaining body was freeze dried and ground to obtain a fine powder.
The Hafnium concentration in all specimen was determined after digestion in oxidizing solution (nitric acid and hydrogen peroxide) at elevated pressure and temperature. The measurement of Hafnium was performed by ICP-MS.

A short description of series [3]: Stability of bis azainositol heavy metal complexes under heat sterilization (121° C., 45 min, pH 7.4; HPLC and ICP-OES). Particulars: aqueous buffered solution pH 7.4, 5 mmol/L, 121° C. for 45 min in steam autoclave; absolute stability = HPLC peak area ratio x metal concentration ratio after/before.
Method: The stability of bis azainositol heavy metal complexes was determined in aqueous, buffered solution at pH 7.4. The solution containing 5 mmol/L of the compound in a tightly sealed vessel was heated to 121° C. for 45 min in a steam autoclave. The metal concentration of the solution was determined by ICP-OES before and after heat treatment. The integrity of the compound was determined by HPLC analysis before and after heat treatment. Absolute stability was calculated as the ratio of the peak area of the compound after and before the heat treatment multiplied with the ratio of the metal concentration of the solution after and before heat treatment.
Column: Reversed phase C18. […] Solvent B: methanol, HPLC grade Gradient: gradients starting from 100% A and 0% B were used. Flow: 1 mL/min Detector D1: element specific detection by ICP-OES running at the most sensitive emission wavelength of the respective complexed metal. Detector D2: element specific detection by ICP-MS running at the most abundant isotope of the respective complexed metal.
The subject of series [4] is Han-Wistar rat. The series can be described thus: Preclinical X-ray imaging: contrast enhanced CT of an anaesthetized rat. In kind it is in vivo. The conditions noted are these: i.v. tail vein, 200 mg Lu per kg body weight, 149 mg Lu/mL, 120 kV. On the procedure:
The study was performed on a clinical CT unit (Sensation 64, Siemens Medical Solutions, Erlangen, Germany) with an anaesthetized rat. The compound described in example 2 was used as X-ray diagnostic agents in order to perform contrast enhanced CT imaging.
The study was performed on a healthy Han-Wistar rat. Initial anaesthesia was induced by inhalation of 4% Isoflurane (Baxter Deutschland GmbH, Unterschleiβheim, Germany) and maintained by 1.5% Isoflurane. The X-ray diagnostic agent (Example 2) at a concentration of 149 mg Lu/mL was administered intravenously via the tail vein by the help of a dedicated injection pump (flow rate=0.6 mL/s). A dosage of 200 mg Lu per kg body weight was used. In order to simulate a clinical condition the rat was placed within a tissue equivalent phantom (QRM, Möhrendorf, Germany) that mimics the human abdomen in respect of X-ray absorption.
An X-ray projection image (topogram) was acquired to adjust the measurement range to the thoracal region of the animal. The subsequent contrast enhanced measurement was done with following CT parameter settings: X-ray tube voltage=120 kV, mAs-product=160 mAs, tube rotational time=0.5 s, slice thickness=2.4 mm, measurement time=20 s. […]
The signal-time course in the left heart chamber was quantified by a region of interest analysis. […]

The subject of series [5] is mice. Description: Tolerability in mice (behaviour and survival after 7 d). The format is in vivo. Particulars: i.v. tail vein. Here is the method:
An aqueous solution of Na3[Lu3(H−3tacita)2](in 10 mM trometamol buffer, pH 7.4, 148 mg Lu/mL) was injected in the tail vein of 1-3 mice for each dose group (22-25 g) at increasing doses ranging from 1000 to 3000 mg Lu/kg. The behaviour of the animals and the survival after 7 d was recorded.

With “Bis{μ3-[(all-cis)-2-{[(carboxy-1κO)ethyl]amino-1κN}-4-{[(carboxy-2κO)ethyl]amino-2κN}-6-{[(carboxy-3κO)ethyl]amino-3κN}cyclohexane-1,3,5-triolate-1κ^2O^1,O^3:2κ^2O^3,O^5:3κ^2O^1,O^5]}trihafnium(IV) [Example 13]”, the total plasma clearance in series [1] is 10 ± 0.6 mL/min/kg. Moreover, in series [1] (elimination phase), the blood half live was determined as 22.6 ± 3.1 min and the volume of distribution came out at 0.31±0.01 I/kg. For the same substance, the “injected Hafnium excreted via the urine” value in series [2] (after 1 d, cumulative) came to 96%. In addition, in series [2] (after 7 d), the “Hafnium content of organs other than kidney” value is recorded as ≤ 0.01 % of the injected dose/g organ (wet weight); the “injected Hafnium found in all organs and the carcass together” value amounted to 0.33%. Also, in series [2] (after 7 d, cumulative), the “injected Hafnium excreted via the urine” value is on record as 97% and the “injected Hafnium found in faeces” value is given as “About 1.3%”.

“Bis{μ3-[(all-cis)-2-{[(carboxy-1κO)methyl]amino-1κN}-4-{[(carboxy-2κO)methyl]amino-2κN}-6-{[(carboxy-3κO)methyl]amino-3κN}cyclohexane-1,3,5-triolate-1κ^2O^1,O^3:2κ^2O^3,O^5:3κ^2O^1,O^5]}trihafnium(IV) [Example 1]”: the Stability in series [3] was found to be 102%.

“Trisodium bis{μ3-(all-cis)-2-{[(carboxy-1κO)ethyl](methyl)-amino-1κN}-4-{[(carboxy-2κO)ethyl](methyl)amino-2κN}-6-{[(carboxy-3κO)ethyl]-(methyl)amino-3κN}cyclohexane-1,3,5-triolate-1κ^2O^1,O^3:2κ^2O^3,O^5:3κ^2O^1,O^5]}triytterbate(II) [Example 23]”: the Stability in series [3] was determined as 96%.

For “Trisodium bis{μ3-[(all-cis)-2-{[(carboxy-1κO)ethyl](methyl)-amino-1κN}-4-{[(carboxy-2κO)ethyl](methyl)amino-2κN}-6-{[(carboxy-3κO)ethyl]-(methyl)amino-3κN}cyclohexane-1,3,5-triolate-1κ^2O^1,O^3:2κ^2O^3,O^5:3κ^2O^1,O^5]}trilutetate(III) [Example 19]”, in series [3], the Stability came to 90%.

As to “Trisodium bis{μ3-[(all-cis)-2-{[(carboxy-1κO)methyl]amino-1κN}-4-{[(carboxy-2κO)methyl]amino-2κN}-6-{[(carboxy-3κO)methyl]amino-3κN}cyclohexane-1,3,5-triolate-1κ^2O^1,O^3:2κ^2O^3,O^5:3κ^2O^1,O^5]}trilutetate(III) [Example 2]”, in series [3], the Stability is listed as 100%. Also, the “CT signal change in blood vessels and heart chambers during passage of the diagnostic agent” value in series [4] is on record as “strong signal increase”. Further, the “survival after 7 d” value in series [5] (1000 mg Lu/kg) is “all animals survived”; in series [5] (2000 mg Lu/kg), “all animals survived”; in series [5] (2500 mg Lu/kg), “all animals survived”; in series [5] (3000 mg Lu/kg), 2 of 3 animals died.
